Measured values from article PMC11898605, “Selective Azapeptide CD36 Ligand MPE-298 Regulates oxLDL-LOX-1-Mediated Inflammation and Mitochondrial Oxidative Stress in Macrophages” (Cells, 2025).

Experiments:
CD36 = molecular target: T1, CD36 (Mus musculus, UniProt Q08857); assay: BRET-based CD36 internalization assay; assay type: cell-based; settings: 30 min pretreatment: PP1 3 μg/mL, cytochalasin D 2 μg/mL, piceatannol 40 μM, 2-bromopalmitate 100 μM, SSO 100 μM, BI-0115 5 μM; then ligand 15 min
T1 construct: CD36 ORF was amplified from pCMV3-mCD36-GFPSpark; expressed in transfected cells; host or cells: J774A.1 murine macrophages, transiently co-transfected with mCD36-RlucII and rGFP-CAAX
Source text: For the construction of mouse CD36-RlucII, CD36 ORF was amplified from pCMV3-mCD36-GFPSpark using the 5′-primer NheI-CD36-Forward: […] and 3′-primer HindIII-CD36-Reverse: […] primers to introduce NheI and HindIII digestion sites sequences. The final product was subcloned in-frame into NheI/HindIII of pcDNA3.1/hygromycin (+) plasmid containing the RlucII [19]. The rGFP-CAAX plasmid, constructed as previously described, was kindly provided by Dr. Stephane Laporte.
For the BRET assay, J774A.1 cells were seeded in a 96-well plate (white, flat bottom) at a density of 35,000 cells/well in DMEM supplemented with 10% FBS and 1% penicillin/streptomycin. Cells were grown at 37 °C in 5% CO2 and 90% humidity. The next day, the culture medium was changed to DMEM 10% FBS and 0.2% penicillin/streptomycin, supplemented with 5-azacytidine (1 μM) for 2 h. Cells were transiently transfected using a mixed solution containing mCD36-RlucII plasmid (25.6 ng), rGFP-CAAX plasmid (31.7 ng), and pcDNA3.1(+) for a total of 80 ng cDNA/well. TransIT-X2® reagent was used at a cDNA-to-reagent ratio of 1 μg to 4 μL. Twenty-four hours later, cells were starved for 2 h in Tyrode’s buffer (140 mM NaCl, 2.7 mM KCl, 1 mM CaCl2, 12 mM NaHCO3, 5.6 mM D-glucose, 0.5 mM MgCl2, 0.37 mM NaH2PO4, and 25 mM HEPES, pH 7.4) supplemented with 0.01% BSA. Luminescence was induced with Prolume Purple (1.5 μM final) for 2 min in Tyrode’s buffer. Luminescence signal was measured using a Tecan Spark Multimode microplate reader (Tecan Trading AG, Männedorf, Switzerlnd) in the BRET2 mode with filter sets of 420/70 nm and 515/30 nm for detecting RlucII and rGFP signals, respectively. The BRET ratio was determined as follows: [(intensity emitted by the rGFP/intensity emitted by the Rluc2) − (intensity emitted by the rGFP/intensity emitted by the Rluc2 for the CD36-RLuc2 control cells)].
For kinetic study, transiently co-transfected J774A.1 cells were incubated at different times with MPE-298 (100 nM) or oxLDL (25 μg/mL). In experimental protocols involving pharmacological inhibitors, cells transiently co-transfected were pretreated with PP1 (3 μg/mL), cytochalasin D (2 μg/mL), piceatannol (40 μM), 2-bromopalmitate (100 μM), SSO (100 μM), and BI-0115 (5 μM) for 30 min. CD36 internalization was then induced with MPE-298 and oxLDL for 15 min. For the BRET saturation studies, the cells were transiently transfected with a fixed concentration of mCD36-RlucII plasmid (25.6 ng) and increasing concentrations of rGFP-CAAX plasmid ranging from 0 to 77 ng for 24 h.

RAW264.7 cells [1] = assay: mtROS production (MitoSOX Red) in RAW264.7 cells; assay type: cell-based, murine; settings: for effect of inhibitor on oxLDL-elicited mtROS production: 30 min pre-exposure, oxLDL 25 μg/mL 4 h, Figures S4C, 5F; for effect of inhibitor on MPE-298's inhibition of oxLDL-elicited mtROS production: SSO 100 μM, PP1 3 μg/mL, cytochalasin D 2 μg/mL, 2-BP 100 μM, BI-0115 5 μM, Figure 5A,B,F
Protocol: RAW264.7 cells (17,000 cells/well) or M1 BMDM (60,000 cells/well) in complete medium (RPMI 1640 supplemented with 10% FBS and 1% penicillin/streptomycin), were seeded in 96-well tissue culture plates and incubated overnight at 37 °C in 5% CO2. On the day of experimentation, cells were starved in RPMI medium supplemented with 1% penicillin/streptomycin and 0.2% BSA for 1 h. Cells were first pretreated with MPE-298 for 1 h and stimulated or not with oxLDL for 4 h. In other experiments, cells were preincubated with inhibitors as indicated in the figure legends prior to MPE-298 incubation and oxLDL stimulation. After the stimulation period, cells were washed with Hanks’ balanced salt solution (HBSS, Wisent Inc.) and incubated with a mixture of MitoSOX Red (5 μM), a mitochondrial superoxide indicator, and Hoechst-33342 (4 μM), a nuclear staining dye, for 20 min at 37 °C. The fluorescence intensities were analyzed using a Synergy2 (BioTek) microplate reader with the following filter sets: excitation/emission at 510/580 nm for MitoSox and 350/461 nm for Hoechst-33342. Fluorescence intensity of MitoSox was normalized by fluorescence intensity of Hoescht-33342.

RAW264.7 cells [2] = assay: Mitochondrial membrane potential (JC-1) in RAW264.7 cells; assay type: cell-based, murine; settings: for effect of inhibitor on oxLDL-elicited mitochondrial membrane depolarization: Figures S4D, 5G; for effect of inhibitor on MPE-298's reversal of oxLDL-elicited mitochondrial membrane depolarization: SSO 100 μM, PP1 3 μg/mL, 2-BP 100 μM, BI-0115 5 μM, Figure 5D,G
Protocol: For the measurement of the mitochondrial membrane potential (ΔΨM), treated cells were incubated in HBSS with 5,5′,6,6′-tetrachloro-1,1′,3,3′-tetraethylbenzimidazolylcarbocyanine iodide (JC-1, 5 μM), a membrane-permeable cationic dye (Invitrogen-Life Technologies, Carlsbad, CA, USA). After 20 min, cells were extensively washed with HBSS. Fluorescence from aggregated JC-1 was measured with an excitation wavelength of 550 nm and emission wavelength of 600 nm, and fluorescence from JC-1 monomer was detected with an excitation wavelength of 485 nm and emission wavelength of 535 nm. The ΔΨM was determined from the ratio of intensities at 600 nm and 535 nm.

RAW264.7 cells [3] = assay: ATTO-465-MPE-298 internalization in RAW264.7 cells; assay type: cell-based, murine; settings: 30 min pretreatment with PP1 3 μg/mL, PP2 3 μg/mL or cytochalasin D 2 μg/mL, ATTO-465-MPE-298 500 nM 15 min, acid wash, n = 3 in triplicate
Protocol: RAW 264.7 cells (ATCC) were seeded at 125,000 cells per well in a 96-well plate and allowed to adhere overnight in Roswell Park Memorial Institute Medium (RPMI, Wisent Inc, Saint-Jean-Baptiste, QC, Canada) supplemented with 10% FBS and 1% penicillin/streptomycin at 37 °C in 5% CO2. The cells were weaned off FBS for 2 h in RPMI-25mM Hepes, supplemented with 1% penicillin/streptomycin and 0.2% BSA. The kinetics of ligand internalization (incubation at 37 °C) and plasma membrane bound (incubation at 4 °C) were initiated by adding ATTO-465-MPE-298 at different time points. After incubation, the cells were washed 3 times with cold PBS to determine the total fluorescence and the cell surface bounds or with sodium acetate pH 4 buffer at 4 °C to assess the internalized fraction, followed by lysis in 0.5N NaOH/0.05% sodium dodecyl sulfate (SDS). For the characterization of the endocytosis pathways elicited by MPE-298, cells were pretreated with specific inhibitors 30 min before adding the fluorescent peptide as the tracer. Briefly, after being weaned off FBS, the cells were preincubated at 37 °C in 5% CO2 with cytochalasin D (2 μg/mL), as an inhibitor of actin polymerization, and with PP1 (3 μg/mL) and PP2 (3 μg/mL), as inhibitors of Src kinases. After 30 min of incubation, ATTO-465-MPE-298 was added for an additional 15 min. The fluorescence was analyzed with excitation/emission wavelengths at 510/580 nm using a BioTek Synergy2 (Agilent, Santa Clara, CA, USA)microplate reader.

p66Shc (Ser36) = assay: Western blot of p66Shc phosphorylation in RAW264.7 cells; assay type: cell-based, murine; settings: preincubation before oxLDL, BI-0115 5 μM, SSO 100 μM, Figures 7A, S5
Protocol: (§1) Murine RAW264.7 cells or M1 BMDMs were seeded in 6-well plates. The next day, cells were starved for 4 h and treated with MPE-298 (100 nM) or oxLDL (25 μg/mL) for the indicated times. Cells were washed with cold PBS, then lysed for 30 min in ice-cold radioimmunoprecipitation assay buffer (RIPA) (150 mM NaCl, 50 mM Tris-HCl, 1% Triton X-100, 0.2% SDS, 50 mM NaF, and 2 mM EDTA, pH 7.4) containing protease and phosphatase inhibitors (Pierce Biotechnology, Waltham, MA, USA). Cell lysates were centrifuged at 15,000× g for 20 min at 4 °C.
(§2) The protein concentration of supernatants was determined by a bicinchoninic acid (BCA) assay (Pierce Biotechnology, Waltham, MA, USA). Equal amounts of protein extracts were separated on 4–12% SDS–polyacrylamide gels and transferred to polyvinylidene difluoride (PVDF) membranes (Bio-Rad Laboratories, Hercules, CA, USA) for immunoblotting. Membranes were blotted with primary antibodies p47phox and Rac1/2/3 for phosphorylated Syk (Tyr348), as well as SRC family kinases (Tyr416), Lyn (Tyr397), JNK (Thr183/Tyr185), and p66Shc (Ser36). […] Immunoblotted bands were detected by enhanced chemiluminescence with West Femto chemiluminescent substrate (Thermo Scientific, Waltham, MA, USA) using a ChemiDoc MP Imaging System (Bio-Rad Laboratories, Hercules, CA, USA). […]

CCL2 = CCL2 secretion, ELISA; assay type: cell-based, mouse; settings: RAW264.7, SSO 100 μM, Figure 4G
Protocol: RAW264.7 cells were seeded at a density of 150,000/well in 48-well plates. The next day, the cells were weaned for 4 h in DMEM supplemented with 0.2% BSA, exposed to MPE-298 or oxLDL or the combination of MPE-298 and oxLDL, and incubated at 37 °C in 5% CO2 for 16 h. After the incubation period, media were collected and assessed for CCL2 chemokine using a mouse ELISA detection kit (Invitrogen-Life Technologies, Carlsbad, CA, USA) following the manufacturer’s instructions. For experiments using inhibitors, the cells were pre-exposed to SSO for 30 min prior to stimulation with MPE-298 or oxLDL.

JNK (Thr183/Tyr185) = assay: Western blot of JNK phosphorylation in RAW264.7 cells; assay type: cell-based, murine; settings: preincubation before oxLDL, BI-0115 5 μM, SSO 100 μM, Figures 7A, S5
Protocol: as §1, §2

| SMILES | effect of inhibitor pretreatment on MPE-298- and oxLDL-induced loss of BRET signal (CD36) | effect of inhibitor on oxLDL-elicited mtROS production (RAW264.7 cells [1]) | effect of inhibitor on MPE-298's inhibition of oxLDL-elicited mtROS production (RAW264.7 cells [1]) | effect of inhibitor on oxLDL-elicited mitochondrial membrane depolarization (RAW264.7 cells [2]) | effect of inhibitor on MPE-298's reversal of oxLDL-elicited mitochondrial membrane depolarization (RAW264.7 cells [2]) | decrease of uptake of fluorescently labeled MPE-298 (RAW264.7 cells [3]) [%] | effect on oxLDL-induced p66Shc phosphorylation (p66Shc (Ser36)) | effect of preincubation on oxLDL-induced CCL2 secretion (CCL2; 30 min preincubation) | effect of pre-exposure on MPE-298's effects on oxLDL-triggered CCL2 release (CCL2) | effect on oxLDL-induced JNK phosphorylation (JNK (Thr183/Tyr185)) |
| --- | --- | --- | --- | --- | --- | --- | --- | --- | --- | --- |
| CCCCCCCCCCCCCCC(Br)C(=O)O (centres unmarked) [2-BP, 2-bromohexadecanoic acid] | abolish | neither SSO nor PP1 and 2-BP altered | blocked | prevented | did not block | – | – | – | – | – |
| Cc1ccc(-c2nn(C(C)(C)C)c3ncnc(N)c23)cc1 [PP1] | completely abolished | neither SSO nor PP1 and 2-BP altered | blocked the protective effect | prevented | did not block | 45 | – | – | – | – |
| CC(C)(C)n1nc(-c2ccc(Cl)cc2)c2c(N)ncnc21 [PP2] | – | – | – | – | – | 41 | – | – | – | – |
| CCCCCCCC/C=C\CCCCCCCC(=O)ON1C(=O)CC(S(=O)(=O)O)C1=O (centres unmarked) [SSO, sulfosuccinimidyl oleate] | completely abolished | neither SSO nor PP1 and 2-BP altered | blocked the protective effect | prevented | did not block | – | did not prevent | unaltered | completely abolished | did not prevent |
| C=C1[C@@H](C)[C@H]2[C@H](Cc3ccccc3)NC(=O)[C@]23[C@H](OC(C)=O)/C=C/[C@@](C)(O)C(=O)[C@@H](C)C/C=C/[C@H]3[C@@H]1O [cytochalasin D] | completely abolished | – | blocked the protective effect | prevented | – | 53 | – | – | – | – |
| Oc1cc(O)cc(/C=C/c2ccc(O)c(O)c2)c1 [piceatannol] | completely abolished | – | – | – | – | – | – | – | – | – |
